One test deals with P2Y2 receptor (Homo sapiens, UniProt P41231). To be noted: cited from earlier work; for pEC50: agonist potency.
Test [1] has as its system intestinal absorption of a phosphate meal from the gastrointestinal tract. Briefly: Acute phosphate tracer uptake to plasma after intragastric co-administration of phosphate test meal and compound (Example 5). To be noted: rats, 15 min after intragastric co-administration. It counts as in vivo, rat. As for the experimental part:
(§1) Compounds were tested for the ability to reduce the appearance of circulating radiolabeled phosphate subsequent to administration to the alimentary canal in rats. The rate of radiolabeled phosphate tracer accumulation in the blood of rats was taken as a surrogate for the intestinal absorption rate of a phosphate meal from the gastrointestinal tract. To this end, circulating radiolabeled phosphate was monitored after intragastric co-administration to rats of a phosphate tracer meal along with example compounds. However, since some of the compounds tested potentially had properties that may hinder this assay, such as having putative gastrointestinal motility effects (e.g., delaying gastric emptying) or being purposefully chemically unstable in the gastrointestinal tract, direct intraduodenal administrations of the phosphate tracer bolus was also performed at times.
Male Sprague-Dawley rats that were 8-weeks of age were purchased from Charles River Laboratories (Hollister, Calif.). To enable blood sampling, rats were purchased with catheters surgically implanted in the jugular vein by the vendor. For studies requiring intraduodenal administration, an additional catheter was surgically implanted by the vendor to allow for direct infusion to the lumen of the duodenum. Rats were fed a normal, grain-based chow (Harlan Teklad, Madison, Wis.; 2018 Teklad Global 18% Protein Rodent Diet) containing 0.65% P, 1% Ca, and 1.5 iu/g Vitamin D3 and given water ad libitum leading up to the study.
Following an overnight fast, rats were administered a phosphate solution containing [^33P]orthophosphate (PerkinElmer, Waltham, Mass.) as a tracer with or without test articles dispersed in the solution at the indicated dosage. This dosing solution typically contained 8 mM monobasic sodium phosphate (1.25 μCi [^33P]orthophosphate/μmol), 4 mM calcium chloride, 0.4% hydroxypropyl methocellulose (w/v), and 2% dimethylsulfoxide (w/v). The dosing solutions were prepared in water for intragastric gavage at 10 ml/kg and in saline if administered intraduodenally using a previously implanted catheter at 5 ml/kg as a bolus.
(§2) Blood was sampled from the jugular vein via implanted catheters from conscious rats following dosing and the radioisotope associated with the resulting plasma was determined by scintillation counting. The relative amount of phosphate uptake from the administered dose to the plasma was assessed using body weight estimation of total circulating plasma. See Bijsterbosch et al., Experientia. 37: 381-382, 1981 (The plasma volume of the Wistar rat in relation to the body weight). The comparative amount of phosphate uptake at 15 min post-dose for each group (n=6) was expressed as a percentage relative to the study vehicle group (n=6) as mean±SEM. Statistical comparisons of the means of each test group compared to the mean of the vehicle group were determined by one-way analysis of variance followed by the Dunnett's posthoc test and P<0.05 was accepted as statistically significant (ns, not significant; *, P<0.05; **, P<0.01; and ***, P <0.001).

For test [2] the test system is unchanged. Briefly: Acute phosphate tracer uptake to plasma after intraduodenal co-administration of phosphate test meal and compound (Example 5). It is filed as in vivo, rat. To be noted: rats, 15 min after intraduodenal co-administration. As to the method:
as §1
Male Sprague-Dawley rats that were 8-weeks of age were purchased from Charles River Laboratories (Hollister, Calif.). To enable blood sampling, rats were purchased with catheters surgically implanted in the jugular vein by the vendor. For studies requiring intraduodenal administration, an additional catheter was surgically implanted by the vendor to allow for direct infusion to the lumen of the duodenum. […]
as §2, with “See Bijsterbosch et al., Experientia. 37: 381-382, 1981 (The plasma volume of the Wistar rat in relation to the body weight).” left out

Test [3] deals with phosphate absorption/uptake in the small intestine. Put plainly: 33P uptake to plasma in rats simultaneously dosed with 33P and test compound (Examples 2-4). It counts as in vivo, rat. To be noted: for uptake of phosphate in the gastrointestinal tract of rats: figure legends FIGS. 1-3. As to the method:
Experiments were performed to determine whether guanylate cyclase C (GC-C) receptor agonists can decrease phosphate absorption/uptake in the small intestine as measured by ^33P uptake. Rats were simultaneously dosed with ^33P and linaclotide as shown below:
Blood was collected at 5, 15, 30, 45, and 60 minutes post-^33P administration and plasma scintillation counting was performed.
Experiments were performed to determine whether other classes of drugs can decrease phosphate absorption/uptake in the small intestine as measured by ^33P uptake. Rats were simultaneously dosed with ^33P and either an imidazoline subtype 1 (I1) receptor agonist (moxonidine) or an adenylate cyclase agonist (the water-soluble forskolin analog NKH477) as shown below:
Experiments were performed to determine whether increasing intracellular calcium (Ca^++) by different mechanisms can also decrease phosphate absorption in the small intestine as measured by ^33P uptake. Rats were simultaneously dosed with ^33P and test compounds as shown below: […]

The mark [4] stands for this setting: Rattus norvegicus, po, 0.25 h, dose 10 mg/kg, read-out: Uptake of phosphate tracer to plasma, % of study vehicle.

pEC50: −log10 of the molar value. Where two headings read alike, the source gives them in different places. Where a SMILES comes first, the peptide text is derived from it. Bridges are numbered along the chain shown (N, C = ends). Where only a bound is given, the exact number is not on record here.

Sequence of P2Y2 receptor (P41231 whole entry): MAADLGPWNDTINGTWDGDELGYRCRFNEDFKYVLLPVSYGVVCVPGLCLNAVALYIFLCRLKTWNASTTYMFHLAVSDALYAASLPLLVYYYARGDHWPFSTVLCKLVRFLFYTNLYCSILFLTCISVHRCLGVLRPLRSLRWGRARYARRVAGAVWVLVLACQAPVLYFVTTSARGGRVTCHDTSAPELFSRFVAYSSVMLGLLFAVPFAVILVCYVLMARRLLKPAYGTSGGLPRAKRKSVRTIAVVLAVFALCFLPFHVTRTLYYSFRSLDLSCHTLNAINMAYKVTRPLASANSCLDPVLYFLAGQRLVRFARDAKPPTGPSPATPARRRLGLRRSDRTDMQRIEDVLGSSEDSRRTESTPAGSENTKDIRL

In the case of `N[C@@H]1[C@H](O)[C@@H](COP(=O)(O)OP(=O)(O)OP(=O)(O)O)O[C@H]1n1ccc(=O)[nH]c1=S` [2′-amino-2-thio-UTP], the “selectivity, P2Y2-selective versus P2Y4” value on P2Y2 receptor (P2Y2 versus P2Y4) is 300 fold. On P2Y2 receptor, the pEC50 is 8.10. In the case of 6-guanyl NECA, the “Uptake of phosphate tracer to plasma, % of study vehicle” value (shortened to “Uptake … % of study vehicle”) in test [1] (dose 10 mg/kg) is above 75%. Regarding `O=C(O)CCCCN(CCc1ccccc1OCc1ccc(CCc2ccccc2)cc1)Cc1ccc(C(=O)O)cc1` [Bay 58-2667], in test [1] (dose 10 mg/kg), the “Uptake … % of study vehicle” value is given as 50-75%. Consider `CCN[C@H]1C[C@H](C)S(=O)(=O)c2sc(S(N)(=O)=O)cc21` [Dorzolamide, dorzolamide], for which, in test [1] (Rattus norvegicus, po, 0.25 h, dose 20 mg/kg, read-out: Uptake of phosphate tracer to plasma, % of study vehicle), the response vs control in vivo at 20 mg/kg lay in the range of 50 to 75%. As to `COCCCN1CCC(NC(=O)c2cc(Cl)c(N)c3c2OCC3)CC1` [Prucalopride, prucalopride], the response vs control in vivo at 10 mg/kg in test [1] (setting [4]) is above 75%. Regarding `CC[C@H](C)[C@@H]1NC(=O)[C@H](CCCNC(=N)N)NC(=O)[C@H](CC(=O)O)NC(=O)[C@H](CCSC)NC(=O)[C@H](CCCNC(=N)N)NC(=O)CNC(=O)CNC(=O)[C@H](Cc2ccccc2)NC(=O)[C@@H](NC(=O)[C@H](CO)NC(=O)[C@H](CO)NC(=O)[C@H](CCCNC(=N)N)NC(=O)[C@H](CCCNC(=N)N)NC(=O)[C@H](CC(C)C)NC(=O)[C@@H](N)CO)CSSC[C@@H](C(=O)N[C@@H](CC(N)=O)C(=O)N[C@@H](CO)C(=O)N[C@@H](Cc2ccccc2)C(=O)N[C@@H](CCCNC(=N)N)C(=O)N[C@@H](Cc2ccc(O)cc2)C(=O)O)NC(=O)CNC(=O)[C@H](CC(C)C)NC(=O)CNC(=O)[C@H](CO)NC(=O)[C@H](CCC(N)=O)NC(=O)[C@H](C)NC(=O)CNC1=O` [Atrial natriuretic peptide], in test [2] (dose 0.2 mg/kg), the “Uptake … % of study vehicle” value is above 75%. In the case of `CCOC(=O)C1=C[C@]2(CC)CCCN3CCc4c(n1c1ccccc41)[C@@H]32` [Vinpocetine, vinpocetine], the response vs control in vivo at 1 mg/kg was 50 to 75% in test [1] (Rattus norvegicus, po, 0.25 h, dose 1 mg/kg + 0.03 mg/kg Linacolitde, read-out: Uptake of phosphate tracer to plasma, % of study vehicle) and above 75% in test [1] (Rattus norvegicus, po, 0.25 h, dose 1 mg/kg, read-out: Uptake of phosphate tracer to plasma, % of study vehicle). Besides, the response vs control in vivo at 10 mg/kg in test [1] (Rattus norvegicus, po, 0.25 h, dose 10 mg/kg + 0.03 mg/kg Linacolitde, read-out: Uptake of phosphate tracer to plasma, % of study vehicle) was 25 to 50%; in test [1] (setting [4]) it was above 75%. Take `N#Cc1c(N)nc(SCC(N)=O)c(C#N)c1-c1ccc(OCC2CC2)cc1` [BAY 60-6583]: in test [1] (dose 10 mg/kg), the “Uptake … % of study vehicle” value is reported as above 75%.

Consider `Nc1nc(-c2nn(Cc3ccccc3F)c3ncccc23)ncc1C1CC1` [Bay 41-2271], for which the “Uptake … % of study vehicle” value in test [1] (dose 10 mg/kg) was above 75%. For the compound `COc1ccc2[nH]cc(CCNC(C)=O)c2c1` [Melatonin, N-acetyl-5-methoxytryptamine], in test [1] (setting [4]), the response vs control in vivo at 10 mg/kg lay within 50 to 75%.

Regarding `O=c1ccn([C@@H]2O[C@H](COP(=O)(O)OP(=O)(O)OP(=O)(O)OP(=O)(O)OC[C@H]3O[C@@H](n4ccc(=O)[nH]c4=O)[C@H](O)[C@@H]3O)[C@@H](O)[C@H]2O)c(=O)[nH]1` [Up4U], in test [3], the “uptake of phosphate in the gastrointestinal tract of rats” value (“uptake of phosphate … of rats” for short) was “reduces”. Also, the 33P uptake/absorption result in test [3] (rats, 15 mg/kg) is “significantly decreased”. Moreover, the response vs control in vivo at 5 mg/kg in test [1] (Rattus norvegicus, po, 0.25 h, dose 5 mg/kg, read-out: Uptake of phosphate tracer to plasma, % of study vehicle) was above 75%. Further, the response vs control in vivo at 15 mg/kg in test [1] (Rattus norvegicus, po, 0.25 h, dose 15 mg/kg, read-out: Uptake of phosphate tracer to plasma, % of study vehicle) is above 75%. For the same compound, the response vs control in vivo at 50 mg/kg in test [1] (Rattus norvegicus, po, 0.25 h, dose 50 mg/kg, read-out: Uptake of phosphate tracer to plasma, % of study vehicle) is above 75%. Take `NC[C@@H]1O[C@H](c2ccccc2)Cc2c1ccc(O)c2O` [A68930]: the “Uptake … % of study vehicle” value in test [1] (dose 10 mg/kg) was 50-75%. In the case of `C[C@@H]1NC(=O)[C@@H]2CCCN2C(=O)[C@H](CC(N)=O)NC(=O)[C@@H]2CSSC[C@H](N)C(=O)N[C@H]3CSSC[C@H](NC1=O)C(=O)N[C@@H]([C@@H](C)O)C(=O)NCC(=O)N[C@H](C(=O)N[C@@H](Cc1ccc(O)cc1)C(=O)O)CSSC[C@H](NC(=O)[C@H](Cc1ccc(O)cc1)NC(=O)[C@H](CCC(=O)O)NC3=O)C(=O)N2` [Linaclotide] (H-CCEYCCNPACTGCY-OH; disulfide 1-6, 2-10, 5-13), in test [3], the “uptake of phosphate … of rats” value is listed as “reduces”. Also, the “absorption of phosphate in the gastrointestinal tract (plasma 33P)” value in test [3] (rats, both doses, 0.1 and 0.3 mg/kg, blood 5-60 min post-33P) is “decreased”. Moreover, the “Uptake … % of study vehicle” value in test [1] (dose 0.03 mg/kg) is reported as 50-75%; in test [1] (dose 0.1 mg/kg) it was 50-75%; in test [1] (dose 0.3 mg/kg), 25-50%. On to `O=c1[nH]c(=S)ccn1[C@@H]1O[C@H](COP(=O)(O)OP(=O)(O)C(F)(F)P(=O)(O)O)[C@@H](O)[C@H]1O` [PSB1114], for which, in test [2] (dose 15 mg/kg), the “Uptake … % of study vehicle” value was above 75%.

With `C1COC(NC(C2CC2)C2CC2)=N1` [Rilmenidine, rilmenidine], the response vs control in vivo at 3 mg/kg in test [1] (Rattus norvegicus, po, 0.25 h, dose 3 mg/kg, read-out: Uptake of phosphate tracer to plasma, % of study vehicle) is above 75%. In the case of `COc1nc(C)nc(Cl)c1N=C1NCCN1` [Moxonidine, moxonidine], in test [3], the “uptake of phosphate … of rats” value is “reduce”. For the same compound, the response vs control in vivo at 2 mg/kg in test [1] (Rattus norvegicus, po, 0.25 h, dose 2 mg/kg, read-out: Uptake of phosphate tracer to plasma, % of study vehicle) lay within 50 to 75%. Moreover, in test [1] (Rattus norvegicus, po, 0.25 h, dose 6 mg/kg, read-out: Uptake of phosphate tracer to plasma, % of study vehicle), the response vs control in vivo at 6 mg/kg fell in the range of 25 to 50%. Consider `CC(C[N+](C)(C)C)OC(N)=O` (stereo not drawn) [Bethanechol, carbamoyl-β-methlycholine], for which the response vs control in vivo at 10 mg/kg in test [1] (setting [4]) was above 75%. Turning to `O=c1[nH]c(=O)n([C@@H]2O[C@H](COP(=O)(O)OP(=O)(O)OP(=O)(O)O)[C@@H](O)[C@H]2O)cc1I` [5-iodo-UTP], at P2Y2 receptor, the pEC50 is 6.08. For the compound `CSc1nc(N)c2ncn([C@@H]3O[C@H](COP(=O)(O)OP(=O)(O)O)[C@@H](O)[C@H]3O)c2n1` [2-methylthio-ADP], the “Uptake … % of study vehicle” value in test [2] (dose 10 mg/kg) is above 75%. On to `CCCCC(C)(C)[C@H](O)/C=C/[C@H]1[C@H](O)CC(=O)[C@@H]1C/C=C\CCCC(=O)O` [16,16-dimethyl-PGE2, 16,16-dimethyl PGE2], for which the “Uptake … % of study vehicle” value in test [1] (dose 3 μg/kg) is recorded as above 75%.

What is called pEC50 is the negative decadic logarithm of the EC50, by convention in mol/L.
